The source of these data is patent US20200102295A1, “NITROCATECHOL DERIVATIVES AS COMT INHIBITORS” (BIAL - PORTELA & CA, S.A., priority 2005, published 2020).

Values joined by “and” are separate entries in the source; they are usually repeats but may differ in a detail not shown here. Identical values can stand only once.

One data set addresses T1, mouse liver COMT (Mus musculus, UniProt O88587).
T1 construct: Aliquots of 0.5 ml of liver homogenates were preincubated; from tissue; host or cells: mouse liver homogenate (NMRI mice, dosed orally; ex vivo activity)
T1 sequence (O88587 1-265): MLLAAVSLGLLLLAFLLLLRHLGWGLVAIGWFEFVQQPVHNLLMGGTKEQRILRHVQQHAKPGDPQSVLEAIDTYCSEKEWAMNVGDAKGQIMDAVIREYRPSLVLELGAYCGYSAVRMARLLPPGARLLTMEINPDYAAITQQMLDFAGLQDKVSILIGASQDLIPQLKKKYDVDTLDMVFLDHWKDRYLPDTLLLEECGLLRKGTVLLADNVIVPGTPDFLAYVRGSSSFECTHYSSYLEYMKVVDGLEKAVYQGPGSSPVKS
Briefly: Mouse liver COMT activity after oral administration of test compounds. Particulars: 3 mg/kg oral, 3 h after administration. In kind it is in vivo.

In data set [1] the test system is Neuro 2A mouse neuroblastoma cells. Briefly: Cell toxicity: Neuro 2A cell viability (calcein-AM). In kind it is cell-based. As to conditions: Neuro 2A cells, 30 μM, 24 h exposure.

`Cc1noc(-c2cc(O)c(O)c([N+](=O)[O-])c2)n1` [Compound 1, 5-(3-methyl-1,2,4-oxadiazol-5-yl)-3-nitropyrocatechol, reference compound]: the “COMT activity (% of control)” value at mouse liver COMT (3 mg/kg) was 59 % of control and 59.9 % of control. Also, in data set [1], the “% of viable cells” value is 55% and 55.1%. `Cc1nc(-c2cc(O)c(O)c([N+](=O)[O-])c2)no1` [Compound 2, 5-(5-Methyl-[1,2,4]oxadiazol-3-yl)-3-nitro-benzene-1,2-diol]: at mouse liver COMT (3 mg/kg), the “COMT activity (% of control)” value was 79 % of control and 78.8 % of control. For the same compound, the “% of viable cells” value in data set [1] was 92.5%.

Turning to `Cc1nnc(-c2cc(O)c(O)c([N+](=O)[O-])c2)o1` [Compound 3, 5-(5-Methyl-[1,3,4]oxadiazol-2-yl)-3-nitro-benzene-1,2-diol], the “COMT activity (% of control)” value on mouse liver COMT (3 mg/kg) is 64 % of control and 63.6 % of control. For the same compound, the “% of viable cells” value in data set [1] is 100.5%.

For `O=[N+]([O-])c1cc(-c2nc(-c3cc[n+]([O-])cc3)no2)cc(O)c1O` [Compound 4, 3-Nitro-5-[3-(1-oxy-pyridin-4-yl)-[1,2,4]oxadiazol-5-yl]-benzene-1,2-diol], the “COMT activity (% of control)” value at mouse liver COMT was 42.1 % of control. Besides, the “% of viable cells” value in data set [1] is on record as 98.3%. The corresponding values for `O=[N+]([O-])c1cc(-c2nc(-c3ccc[n+]([O-])c3)no2)cc(O)c1O` [Compound 5, 3-Nitro-5-[3-(1-oxy-pyridin-3-yl)-[1,2,4]oxadiazol-5-yl]-benzene-1,2-diol] are 58.4 % of control and 93.8%.

Regarding `O=[N+]([O-])c1cc(-c2nc(-c3cccc[n+]3[O-])no2)cc(O)c1O` [Compound 6, 3-Nitro-5-[3-(1-oxy-pyridin-2-yl)-[1,2,4]oxadiazol-5-yl]-benzene-1,2-diol], the “COMT activity (% of control)” value on mouse liver COMT is 101.0 % of control. For the same compound, the “% of viable cells” value in data set [1] was 107.1%. In the case of `O=[N+]([O-])c1cc(-c2nc(-c3c(Cl)c[n+]([O-])cc3Cl)no2)cc(O)c1O` [Compound 7, 5-[3-(3,5-Dichloro-1-oxy-pyridin-4-yl)-[1,2,4]oxadiazol-5-yl]-3-nitro-benzene-1,2-diol], the “COMT activity (% of control)” value on mouse liver COMT was 14.2 % of control. In addition, the “% of viable cells” value in data set [1] was 56.9%. Regarding `O=[N+]([O-])c1cc(-c2nc(-c3cc[n+]([O-])c(Cl)c3)no2)cc(O)c1O` [Compound 8, 5-[3-(2-Chloro-1-oxy-pyridin-4-yl)-[1,2,4]oxadiazol-5-yl]-3-nitro-benzene-1,2-diol], on mouse liver COMT, the “COMT activity (% of control)” value is reported as 55.4 % of control. For the same compound, the “% of viable cells” value in data set [1] is reported as 106.7%. `O=[N+]([O-])c1cc(-c2nc(-c3cc[n+]([O-])c(-c4ccccc4)c3)no2)cc(O)c1O` [Compound 9, 3-Nitro-5-[3-(1-oxy-2-phenyl-pyridin-4-yl)-[1,2,4]oxadiazol-5-yl]-benzene-1,2-diol]: the “COMT activity (% of control)” value on mouse liver COMT is reported as 80.6 % of control. In addition, in data set [1], the “% of viable cells” value is recorded as 79.7%. The corresponding values for `O=[N+]([O-])c1cc(-c2nc(-c3cc[n+]([O-])c(-c4ccoc4)c3)no2)cc(O)c1O` [Compound 10, 5-[3-(2-Furan-3-yl-1-oxy-pyridine-4-yl)-[1,2,4]oxadiazol-5-yl]-3-nitro-benzene-1,2-diol] are 95.2 % of control and 69.3%. Regarding `O=[N+]([O-])c1cc(-c2nc(-c3cc[n+]([O-])c(N4CCOCC4)c3)no2)cc(O)c1O` [Compound 11, 5-[3-(2-Morpholin-4-yl-1-oxy-pyridine-4-yl)-[1,2,4]oxadiazol-5-yl]-3-nitro-benzene-1,2-diol], the “COMT activity (% of control)” value at mouse liver COMT is given as 63.9 % of control. Besides, the “% of viable cells” value in data set [1] is 105.7%. The corresponding values for `O=[N+]([O-])c1cc(-c2nc(-c3cc[n+]([O-])c(N4CCSCC4)c3)no2)cc(O)c1O` [Compound 12, 3-Nitro-5-[3-(1-oxy-2-thiomorpholin-4-yl-pyridin-4-yl)-[1,2,4]oxadiazol-5-yl]-benzene-1,2-diol] are 92.9 % of control and 91.7%.

`O=[N+]([O-])c1cc(-c2nc(-c3cc[n+]([O-])c(Sc4ccccc4)c3)no2)cc(O)c1O` [Compound 13, 3-Nitro-5-[3-(1-oxy-2-phenylsulfanyl-pyridin-4-yl)-[1,2,4]oxadiazol-5-yl]-benzene-1,2-diol]: the “COMT activity (% of control)” value on mouse liver COMT is 102.3 % of control. Turning to `O=[N+]([O-])c1cc(-c2nc(-c3cc[n+]([O-])c(Oc4ccccc4)c3)no2)cc(O)c1O` [Compound 14, 3-Nitro-5-[3-(1-oxy-2-phenoxy-pyridin-4-yl)-[1,2,4]oxadiazol-5-yl]-benzene-1,2-diol], the “COMT activity (% of control)” value at mouse liver COMT is given as 76.8 % of control. Besides, the “% of viable cells” value in data set [1] is reported as 83.5%.

As to `Cc1cc(-c2noc(-c3cc(O)c(O)c([N+](=O)[O-])c3)n2)cc(C)[n+]1[O-]` [Compound 15, 5-[3-(2,6-Dimethyl-1-oxy-pyridine-4-yl)-[1,2,4]oxadiazol-5-yl]-3-nitro-benzene-1,2-diol], the “COMT activity (% of control)” value on mouse liver COMT was 79.2 % of control. For the same compound, in data set [1], the “% of viable cells” value is on record as 97.1%.

As for `CS(=O)(=O)c1cc(-c2noc(-c3cc(O)c(O)c([N+](=O)[O-])c3)n2)cc[n+]1[O-]` [Compound 16, 5-[3-(2-Methanesulfonyl-1-oxy-pyridine-4-yl)-[1,2,4]oxadiazol-5-yl]-3-nitro-benzene-1,2-diol], the “COMT activity (% of control)” value at mouse liver COMT is recorded as 85.9 % of control. In addition, the “% of viable cells” value in data set [1] was 64.6%. As for `Cc1ccc(-c2noc(-c3cc(O)c(O)c([N+](=O)[O-])c3)n2)c[n+]1[O-]` [Compound 20, 5-[3-(6-Methyl-1-oxy-pyridin-3-yl)-[1,2,4]oxadiazol-5-yl]-3-nitro-benzene-1,2-diol], the “COMT activity (% of control)” value on mouse liver COMT is 56.6 % of control. The same measure, in the same setting: to `Cc1cc[n+]([O-])cc1-c1noc(-c2cc(O)c(O)c([N+](=O)[O-])c2)n1` [Compound 21, 5-[3-(4-Methyl-1-oxy-pyridin-3-yl)-[1,2,4]oxadiazol-5-yl]-3-nitro-benzene-1,2-diol] belongs 95.6 % of control; to `O=[N+]([O-])c1cc(-c2nc(-c3cc(-c4ccccc4)c[n+]([O-])c3)no2)cc(O)c1O` [Compound 22, 3-Nitro-5-[3-(1-oxy-5-phenyl-pyridin-3-yl)-[1,2,4]oxadiazol-5-yl]-benzene-1,2-diol], 111.6 % of control. Same read-out and setting: with `O=[N+]([O-])c1cc(-c2nc(-c3cc[n+]([O-])c4ccccc34)no2)cc(O)c1O` [Compound 34, 3-Nitro-5-[3-(1-oxy-quinolin-4-yl)-[1,2,4]oxadiazol-5-yl]-benzene-1,2-diol] the figure was 88.6 % of control; with `O=[N+]([O-])c1cc(-c2nc(-c3cc4ccccc4[n+]([O-])c3)no2)cc(O)c1O` [Compound 35, 3-Nitro-5-[3-(1-oxy-quinolin-3-yl)-[1,2,4]oxadiazol-5-yl]-benzene-1,2-diol], 81.2 % of control.

In the case of `O=[N+]([O-])c1cc(-c2nc(COc3ccc(C(F)(F)F)c[n+]3[O-])no2)cc(O)c1O` [Compound 44, 3-Nitro-5-[3-(1′-oxy-5-trifluoromethyl-pyridin-2-yloxymethyl)-[1,2,4]oxadiazol-5-yl]-benzene-1,2-diol], the “COMT activity (% of control)” value at mouse liver COMT is on record as 24.5 % of control.
